Test: xn = mol fraction of the nth substance listed
Conditions: 101 kPa, Liquid; for viscosity: Falling or rolling sphere viscometry; for mass density: Vibrating tube method

CCCC[n+]1ccc(C)cc1.O=S(=O)([N-]S(=O)(=O)C(F)(F)F)C(F)(F)F + CCCC[n+]1ccccc1.F[B-](F)(F)F
Conditions | mass density [kg/m3] | viscosity [mPa·s]
293.15 K, x2 = 0 | 1416.6 | 70.6
293.15 K, x2 = 0.0575 | 1409.3 | 75.3
293.15 K, x2 = 0.1136 | 1401.9 | 77.8
293.15 K, x2 = 0.2311 | 1385.1 | 88.7
293.15 K, x2 = 0.3515 | 1366 | 101.1
293.15 K, x2 = 0.4566 | 1347.8 | 115.1
293.15 K, x2 = 0.5692 | 1326.2 | 135.2
293.15 K, x2 = 0.673 | 1304 | 153.4
293.15 K, x2 = 0.7836 | 1277.5 | 171.9
293.15 K, x2 = 0.889 | 1249.1 | 195
293.15 K, x2 = 0.9535 | 1230.2 | 216.1
303.15 K, x2 = 0 | 1407.3 | 45.2
303.15 K, x2 = 0.0575 | 1400.1 | 47.3
303.15 K, x2 = 0.1136 | 1392.8 | 49.3
303.15 K, x2 = 0.2311 | 1376.2 | 55.5
303.15 K, x2 = 0.3515 | 1357.4 | 63.3
303.15 K, x2 = 0.4566 | 1339.4 | 72.7
303.15 K, x2 = 0.5692 | 1318.1 | 81.7
303.15 K, x2 = 0.673 | 1296.1 | 90.6
303.15 K, x2 = 0.7836 | 1270 | 98.9
303.15 K, x2 = 0.889 | 1241.9 | 109.6
303.15 K, x2 = 0.9535 | 1223.2 | 118.8
313.15 K, x2 = 0 | 1398.1 | 30.6
313.15 K, x2 = 0.0575 | 1391 | 31.9
313.15 K, x2 = 0.1136 | 1383.8 | 33
313.15 K, x2 = 0.2311 | 1367.4 | 37
313.15 K, x2 = 0.3515 | 1348.8 | 42.3
313.15 K, x2 = 0.4566 | 1331.1 | 47.2
313.15 K, x2 = 0.5692 | 1310 | 52.1
313.15 K, x2 = 0.673 | 1288.3 | 56.6
313.15 K, x2 = 0.7836 | 1262.5 | 61.3
313.15 K, x2 = 0.889 | 1234.7 | 66.9
313.15 K, x2 = 0.9535 | 1216.2 | 72.5
323.15 K, x2 = 0 | 1388.8 | 21.8
323.15 K, x2 = 0.0575 | 1381.9 | 22.6
323.15 K, x2 = 0.1136 | 1374.7 | 23.5
323.15 K, x2 = 0.2311 | 1358.6 | 26.4
323.15 K, x2 = 0.3515 | 1340.3 | 29.6
323.15 K, x2 = 0.4566 | 1322.8 | 32.4
323.15 K, x2 = 0.5692 | 1302 | 35.4
323.15 K, x2 = 0.673 | 1280.5 | 38.2
323.15 K, x2 = 0.7836 | 1255 | 41
323.15 K, x2 = 0.889 | 1227.6 | 44.1
323.15 K, x2 = 0.9535 | 1209.3 | 46.5
333.15 K, x2 = 0 | 1379.7 | 16.1
333.15 K, x2 = 0.0575 | 1372.8 | 16.8
333.15 K, x2 = 0.1136 | 1365.8 | 17.5
333.15 K, x2 = 0.2311 | 1349.8 | 19.5
333.15 K, x2 = 0.3515 | 1331.8 | 21.6
333.15 K, x2 = 0.4566 | 1314.5 | 23.3
333.15 K, x2 = 0.5692 | 1294 | 25.2
333.15 K, x2 = 0.673 | 1272.8 | 27
333.15 K, x2 = 0.7836 | 1247.6 | 28.9
333.15 K, x2 = 0.889 | 1220.5 | 30.8
333.15 K, x2 = 0.9535 | 1202.4 | 32.2
343.15 K, x2 = 0 | 1370.5 | 12.3
343.15 K, x2 = 0.0575 | 1363.8 | 12.8
343.15 K, x2 = 0.1136 | 1356.9 | 13.3
343.15 K, x2 = 0.2311 | 1341.1 | 14.6
343.15 K, x2 = 0.3515 | 1323.3 | 16
343.15 K, x2 = 0.4566 | 1306.3 | 17.2
343.15 K, x2 = 0.5692 | 1286 | 18.5
343.15 K, x2 = 0.673 | 1265.1 | 19.7
343.15 K, x2 = 0.7836 | 1240.2 | 20.9
343.15 K, x2 = 0.889 | 1213.4 | 22.1
343.15 K, x2 = 0.9535 | 1195.6 | 23
353.15 K, x2 = 0 | 1361.5 | 9.8
353.15 K, x2 = 0.0575 | 1354.9 | 10.1
353.15 K, x2 = 0.1136 | 1348 | 10.5
353.15 K, x2 = 0.2311 | 1332.5 | 11.4
353.15 K, x2 = 0.3515 | 1314.9 | 12.4
353.15 K, x2 = 0.4566 | 1298.1 | 13.3
353.15 K, x2 = 0.5692 | 1278.1 | 14.1
353.15 K, x2 = 0.673 | 1257.5 | 14.9
353.15 K, x2 = 0.7836 | 1232.8 | 15.8
353.15 K, x2 = 0.889 | 1206.3 | 16.6
353.15 K, x2 = 0.9535 | 1188.8 | 17.2
